Source: ChEMBL document CHEMBL1201862, “PubChem BioAssay data set” (2004)
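48-hour exposure; five concentrations; linearly interpolated endpoints. GI50: concentration for 50% inhibition of growth.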 Activity calls are given as the source filed them. No stated cut-off is given here; in the data, active = GI50 up to about 1.1 µM and inactive = higher.

Key:
Assay in all cases: DTP human tumour cell line panel, 48 h
CAKI-1 = tested on: CAKI-1
COLO 205 = tested on: COLO 205
DLD-1 = tested on: DLD-1
HCT-116 = tested on: HCT-116
HCT-15 = tested on: HCT-15
LXFL 529 = tested on: LXFL 529
M19-MEL = tested on: M19-MEL
MOLT-4 = tested on: MOLT-4
Malme-3M = tested on: Malme-3M
NCI-H226 = tested on: NCI-H226
NCI-H522 = tested on: NCI-H522
PC-3 = tested on: PC-3
SF-268 = tested on: SF-268
SF-295 = tested on: SF-295
SF-539 = tested on: SF-539
SK-MEL-28 = tested on: SK-MEL-28
SK-MEL-2 = tested on: SK-MEL-2
SR = tested on: SR
Hs-578T = tested on: Hs-578T
NCI/ADR-RES = tested on: NCI/ADR-RES

Structure (SMILES) | GI50 (CAKI-1) | GI50 (COLO 205) | GI50 (DLD-1) | GI50 (HCT-116) | GI50 (HCT-15) | GI50 (LXFL 529) | GI50 (M19-MEL) | GI50 (MOLT-4) | GI50 (Malme-3M) | GI50 (NCI-H226) | GI50 (NCI-H522) | GI50 (PC-3) | GI50 (SF-268) | GI50 (SF-295) | GI50 (SF-539) | GI50 (SK-MEL-28) | GI50 (SK-MEL-2) | GI50 (SR) | GI50 (Hs-578T) | GI50 (NCI/ADR-RES)
CCOC(=O)c1c(CN2CCNCC2)nc2ccc(Cl)cc2c1-c1ccccc1 | 2.47 µM (inactive) | 2.03 µM (inactive) | 2.98 µM (inactive) | 3.07 µM (inactive) | 3.91 µM | 1.74 µM (inactive) | 1.9 µM (inactive) | 1.86 µM (inactive) | 1.94 µM (inactive) | 12.6 µM (inactive) | 4.38 µM (inactive) | 2.54 µM (inactive) | 5.6 µM (inactive) | 2.24 µM (inactive) | 2.56 µM (inactive) | 3.83 µM (inactive) | 1.79 µM (inactive) | 1.78 µM (inactive) | – | –
O=C(c1cccc2ccccc12)N1CCC(C2CCN(C(=O)c3cccc4ccccc34)CC2)CC1 | > 100 µM (inactive) | > 100 µM (inactive) | > 100 µM (inactive) | > 100 µM (inactive) | > 100 µM | > 100 µM (inactive) | > 100 µM (inactive) | > 100 µM (inactive) | > 100 µM (inactive) | > 100 µM (inactive) | > 100 µM (inactive) | – | > 100 µM (inactive) | > 100 µM (inactive) | > 100 µM (inactive) | > 100 µM (inactive) | > 100 µM (inactive) | > 100 µM (inactive) | – | –
c1ccc2c(c1)N=C(c1cccc3ccccc13)CC(c1cccc3ccccc13)S2 (stereo not given) | 4.43 µM (inactive) | 12.9 µM (inactive) | 3.6 µM (inactive) | 3.19 µM (inactive) | 4.26 µM | 3.27 µM (inactive) | 5.53 µM (inactive) | 2.24 µM (inactive) | 14.9 µM (inactive) | 9.84 µM (inactive) | 2.54 µM (inactive) | – | 4.42 µM (inactive) | 9.77 µM (inactive) | 4.92 µM (inactive) | 7.36 µM (inactive) | 14.9 µM (inactive) | 2.07 µM (inactive) | – | –
CCC(C)OC(=O)C1C2CCC(O2)C1C(=O)O (stereo not given) | > 100 µM (inactive) | > 44.8 µM (inactive) | > 51.4 µM (inactive) | > 40.6 µM (inactive) | > 41.1 µM | > 62.7 µM (inactive) | > 60.7 µM (inactive) | > 87.1 µM (inactive) | > 100 µM (inactive) | > 100 µM (inactive) | > 100 µM (inactive) | – | > 51.2 µM (inactive) | > 100 µM (inactive) | 99.8 µM (inactive) | > 100 µM (inactive) | > 100 µM (inactive) | 19.2 µM (inactive) | – | –
CCOC1=C2N=C(C(CC)c3ccc(F)cc3)N=C2C(=O)c2ccccc21 (stereo not given) | 22 µM (inactive) | 22.3 µM (inactive) | 7.55 µM (inactive) | 23.9 µM (inactive) | 18.6 µM | 23.9 µM (inactive) | 24 µM (inactive) | 18 µM (inactive) | 23.3 µM (inactive) | 16 µM (inactive) | 22.3 µM (inactive) | – | 19.7 µM (inactive) | 21 µM (inactive) | 16.3 µM (inactive) | 36.5 µM (inactive) | 18.7 µM (inactive) | 21.3 µM (inactive) | – | –
O=[N+]([O-])c1cc(C(F)(F)F)cc2n[se]nc12 | 4.6 µM (inactive) | 2.03 µM (inactive) | 3.18 µM (inactive) | 1.75 µM (inactive) | 2.28 µM | 1.72 µM (inactive) | 3.33 µM (inactive) | 1.48 µM (inactive) | 1.79 µM (inactive) | 20.6 µM (inactive) | 3.13 µM (inactive) | 4 µM (inactive) | 5 µM (inactive) | 12.5 µM (inactive) | 3.89 µM (inactive) | 2.22 µM (inactive) | 8.38 µM (inactive) | 1.36 µM (inactive) | 19.3 µM (inactive) | 2.12 µM (inactive)
CC1=C2C(=O)[C@H]3[C@@H](CC=C4C[C@@H](O)CC[C@@]43C)[C@@H]2CC[C@]12O[C@@H]1C[C@H](C)CN[C@H]1[C@H]2C [JERVINE] | > 40.8 µM (inactive) | > 75.5 µM (inactive) | 29.9 µM (inactive) | > 46 µM (inactive) | > 50.8 µM | 18.4 µM (inactive) | 29.4 µM (inactive) | > 82.4 µM (inactive) | > 50.4 µM (inactive) | > 43.8 µM (inactive) | > 42.2 µM (inactive) | > 100 µM (inactive) | > 46.6 µM (inactive) | > 44.1 µM (inactive) | > 47.9 µM (inactive) | > 49.3 µM (inactive) | > 50.7 µM (inactive) | – | > 100 µM (inactive) | > 100 µM (inactive)
